In series [1] the test system is CYP3A4. Conditions: read-out: Ki for inhibition of the metabolism of sirolimus; reference not given; cited from earlier work.
In series [2] the test system is CYP3A4. Further details: method as in Cai et al, 2007. Conditions: in vitro liver microsome systems, ref Cai et al, 2007, cited from earlier work.
On the set-up of series [3]: method as in Boni et al, 2007. Conditions: healthy adults; with rifampin; ref Boni et al, 2007; cited from earlier work.
Details of series [4]: method as in Atkins et al, 2004. Conditions: ref Atkins et al, 2004, cited from earlier work.
Details of series [5]: method as in Punt et al, 2003. As to conditions: stored at −70°C; ref Punt et al, 2003; cited from earlier work.
The nature of series [6]: Drug interaction study: whole blood pharmacokinetics of temsirolimus and sirolimus after single 5-mg i.v. temsirolimus alone or with oral ketoconazole. As to conditions: for Intersubject variability, CV for Cmax and AUC: both treatment periods; for Cmax / AUC / AUC(0-t) / Vd / half-life / Tmax / clearance: human; for Cmax / AUC / AUC(0-t) / Vd / half-life / Tmax / T1/2 / clearance / CL / Vss: whole blood. It counts as in vivo, human. The method, then: (§1) In this open-label, non-randomised, single-centre, two-period, sequential study, subjects received temsirolimus (Torisel™; Wyeth Pharmaceuticals, Philadelphia, PA, USA) alone, followed by temsirolimus in combination with ketoconazole after a 14-day washout period. On study day 1 of the first period, subjects received 25 mg i.v. diphenhydramine, followed 30 min later by 5 mg i.v. temsirolimus over 30 min. Subjects remained in the clinical unit until the 72-h blood collection (study day 4) and returned for subsequent blood draws at designated time points over the next 4 days (study days 5–8). Study days 9 through 13 were part of the washout period. During the second period, subjects returned to the clinical unit on study day 14. On study day 15, they received 400 mg oral ketoconazole, followed 90 min later by a 25-mg i.v. dose of diphenhydramine. Thirty minutes later, subjects were administered a 30-min i.v. infusion of 5 mg temsirolimus. Subjects remained in the clinical unit until the 72-h blood draw (study day 18) and returned for all subsequent blood draws. They continued to take 400 mg ketoconazole orally each day through study day 21. Subjects fasted for 10 h before receiving temsirolimus and for 4 h afterward.
Blood samples were collected predose, immediately before the end of the infusion (0.5 h), and at 1, 3, 8, 24, 48, 72, 96, 120, 144, and 168 h after administration of temsirolimus on study days 1 and 15. Samples were collected in evacuated tubes containing ethylenediaminetetraacetic acid (EDTA) and gently mixed, then stored upright at −70°C until shipment.
Analytes and internal standard were extracted from a 1-ml sample of EDTA-treated whole blood by liquid–liquid extraction with 1-chlorobutane and separated with a YMC PDS AQ HPLC column (Waters, Milford, MA, USA). Analytes were detected by tandem mass spectrometry using atmospheric pressure chemical ionisation. The concentration of analytes was determined with calibration standards using linear least squares regression.
Pharmacokinetic parameters for temsirolimus were analysed for each subject for each study period using non-compartmental methods ([Jusko, 1992]). Scheduled times were used for all calculations. The Cmax and the time to reach Cmax (Tmax) were determined visually from the concentration–time curves. The terminal elimination rate constant, λz, was estimated by log-linear regression of the terminal portion of the whole blood concentration–time curves. The terminal elimination half-life (T1/2) was calculated as 0.693/λz. The area under the concentration–time curve (AUCT) was calculated using the trapezoidal rule for the ascending portion of the curve, and the log-trapezoidal rule for the descending portion of the curve. […] Clearance (CL) is the volume of plasma cleared of the drug per unit time (dose/AUC). Apparent clearance was corrected for the fraction of the dose that was metabolised (CL/fm). The apparent volume of distribution during the terminal phase (Vz) was calculated by (CL/fm)/λz. The calculation of the steady-state volume of distribution (Vdss) incorporated dissociation and association rates of protein and tissue binding. Vdss was defined as (dose/AUC)MRTu, where MRTu is the mean residence time of the unbound drug in the plasma ([Berezhkovskiy, 2004]).
(§2) The geometric mean relative bioavailability of Cmax, AUC, and AUCT and the 90% confidence limits were calculated using ANOVA to determine the magnitude of the effect of ketoconazole. Vital signs, ECG intervals, and laboratory parameters were screened for prespecified, potentially clinically important criteria.

Details of series [7]: method as in Boni et al, 2007. As to conditions: cancer patients; ref Boni et al, 2007; cited from earlier work.
On the set-up of series [8]: method as in Zimmerman, 2004. Conditions: oral sirolimus; ref Zimmerman, 2004; cited from earlier work.
Series [9] is described as follows: Safety: treatment-emergent adverse events in healthy subjects receiving temsirolimus alone or with ketoconazole. The format is in vivo, human. The procedure:
as §1, §2

Setting [10] is: 5 mg i.v. temsirolimus + 400 mg oral ketoconazole vs temsirolimus alone.
The mark [11] stands for this setting: 5 mg i.v. temsirolimus + ketoconazole vs temsirolimus alone.
Setting [12] is: intravenous, single 5 mg i.v. temsirolimus + ketoconazole 400 mg oral, healthy subjects, mean (CV).
[13] abbreviates: intravenous, single 5 mg i.v. temsirolimus + ketoconazole 400 mg oral, mean (CV).
Where [14] appears, read: iv, single 5 mg i.v. temsirolimus alone, healthy subjects, mean (CV).
Setting [15] is: iv, single 5 mg i.v. temsirolimus alone, mean (CV).
Setting [16] is: iv, 5 mg, 5 mg i.v. temsirolimus, irrespective of treatment (with or without ketoconazole), read-out: Time to maximal concentration.
The mark [17] stands for this setting: iv, 5 mg, single 5 mg i.v. temsirolimus alone, mean (CV).
The mark [18] stands for this setting: iv, 5 mg, single 5 mg i.v. temsirolimus alone, mean (CV), read-out: Tmax.
Setting [19] is: single 5 mg i.v. temsirolimus + ketoconazole 400 mg oral, mean (CV).
[20] abbreviates: single 5 mg i.v. temsirolimus alone, mean (CV).
Where [21] appears, read: single 25-mg dose of temsirolimus, patients with RCC, CV=17%.
Where [22] appears, read: with ketoconazole relative to single 5-mg i.v. temsirolimus alone, 90% CI in brackets.

“And” between values parts separate entries of the source, which are not always exact repeats. Equal values may be shown once. “Also recorded” adds a separate entry of the source. Read-outs that look alike come from different tables or passages of the source.

The Ki is a dissociation constant, usually derived from enzyme kinetics or from competition with a known ligand. The term IC50 denotes the concentration that gives 50% inhibition. One may read the Cmax as the maximum level reached in the sampled fluid or tissue. For orientation: AUC means concentration integrated over time. Broadly, the AUC(0-t) is exposure summed from dosing to a finite time, without extrapolation to infinity. What is called half-life is the time in which the quantity being followed falls by half.

As to `CC(=O)N1CCN(c2ccc(OCC3COC(Cn4ccnc4)(c4ccc(Cl)cc4Cl)O3)cc2)CC1` (stereo not drawn) [Ketoconazole], the Ki in the series on CYP3A4 [1] was […]. Moreover, the “Formation of temsirolimus metabolites, % of control levels” value in the series with CYP3A4 [2] is recorded as […]. Besides, in the series on CYP3A4 [2] (read-out: IC50 for formation of temsirolimus metabolites), the IC50 was […].

For the compound `CO[C@H]1C[C@@H]2CC[C@@H](C)[C@@](O)(O2)C(=O)C(=O)N2CCCC[C@H]2C(=O)O[C@H]([C@H](C)C[C@@H]2CC[C@@H](O)[C@H](OC)C2)CC(=O)[C@H](C)/C=C(\C)[C@@H](O)[C@@H](OC)C(=O)[C@H](C)C[C@H](C)/C=C/C=C/C=C/1C` [Sirolimus], the “Reduction of AUC by rifampin” value in series [3] was 56%. Further, the “Cmax as % of temsirolimus Cmax values” in [4] (after temsirolimus) is given as 10–20%. Moreover, the “Stability in whole blood” value in [5] is reported as “stable”. Besides, the “Increase in mean AUC with ketoconazole compared with temsirolimus alone” value in series [6] (setting [10]) was 3.1 fold and 3.2 fold. For the same compound, the “Increase in mean Cmax with ketoconazole compared with temsirolimus alone” value in series [6] (setting [10]) amounted to 2.2 fold. In addition, the “Decrease in mean apparent metabolic clearance (CL/fm) with ketoconazole” value in [6] (setting [11]) is given as 3.2 fold. Further, in series [6], the “Intersubject variability, CV for Cmax and AUC” value is less than 33%. Moreover, the peak concentration (Cmax) in [6] (setting [12]) was found to be 29 ng/mL; in series [6] (setting [14]), 13.3 ng/mL. In addition, the AUC in series [6] (setting [13]) worked out at 3890 ng·h/mL; in series [6] (setting [15]) it was 1200 ng·h/mL. Also, the AUC(0-t) in series [6] (setting [13]) turned out to be 2410 ng·h/mL; in series [6] (setting [15]), 918 ng·h/mL. Further, the Vd was 227 L in series [6] (intravenous, metabolite sirolimus, single 5 mg i.v. temsirolimus + ketoconazole 400 mg oral, mean (CV), read-out: Vss/fm); 220 L in series [6] (intravenous, metabolite sirolimus, single 5 mg i.v. temsirolimus + ketoconazole 400 mg oral, mean (CV), read-out: Vz/fm); 494 L in series [6] (iv, 5 mg, metabolite sirolimus, single 5 mg i.v. temsirolimus alone, mean (CV), read-out: Vss/fm); 480 L in series [6] (iv, 5 mg, metabolite sirolimus, single 5 mg i.v. temsirolimus alone, mean (CV), read-out: Vz/fm). Further, the values for the half-life in [6] (setting [13]) and in series [6] (setting [17]) were 113 h and 75 h, respectively. Also, the results for the Tmax in [6] (setting [16]) and in series [6] (setting [18]) were 3 h and 3.3 h, respectively. Further, the “Reduction in apparent clearance with ketoconazole” value in [6] (metabolite sirolimus, 5 mg i.v. temsirolimus + ketoconazole vs temsirolimus alone) is 69%. Moreover, in [6] (period 2, mean), the “Carryover from treatment period 1 to 2, contribution to mean total AUC” value is 1.9%. Also, the “Carryover from treatment period 1 to 2, contribution to total AUC, range” value in series [6] (period 2, range) is on record as 1.1–3.7%. The T1/2 in series [6] (setting [19]) is listed as 112.8 (18.1%) h; in series [6] (setting [20]), 74.8 (10.8%) h. Moreover, the “Reduction in AUC with concomitant enzyme-inducing anticonvulsant agents” value in [7] was 45%. Also, in series [7], the “Reduction in Cmax with concomitant enzyme-inducing anticonvulsant agents” value is 67%. Besides, the “Increase in blood levels with ketoconazole” value in series [8] is reported as roughly 10 fold.

Take `CO[C@H]1C[C@@H]2CC[C@@H](C)[C@@](O)(O2)C(=O)C(=O)N2CCCC[C@H]2C(=O)O[C@H]([C@H](C)C[C@@H]2CC[C@@H](OC(=O)C(C)(CO)CO)[C@H](OC)C2)CC(=O)[C@H](C)/C=C(\C)[C@@H](O)[C@@H](OC)C(=O)[C@H](C)C[C@H](C)/C=C/C=C/C=C/1C` [Temsirolimus]: in series [3], the “Effect of rifampin on AUC” value is recorded as “no effect”. The Tolerability entry in [9] (human, in vivo) was “well tolerated”. Besides, the “Herpes simplex (skin and appendages)” value is on record as 0 n (%) in series [9] (temsirolimus 5 mg + ketoconazole 400 mg, n=14) and 1 (5.9) n (%) in series [9] (temsirolimus 5 mg alone, n=17). The “Deaths or serious adverse events” value in [9] (temsirolimus alone and with ketoconazole) was “No deaths or serious adverse events”. For the same compound, the “Mean area under the curve (AUC)” value in series [4] (setting [21]) was 1580 ng·h/mL. Moreover, the “Mean maximum concentration (Cmax) in whole blood” value in series [4] (setting [21]) was 595 ng/mL. In addition, the “Stability in whole blood” value in [5] is given as “stable”. Besides, the “Decrease in mean clearance with ketoconazole” value in series [6] (setting [11]) is recorded as “approximately 10%”. In [6] (400 mg oral ketoconazole with 5 mg i.v. temsirolimus, healthy subjects), the “Effect of ketoconazole coadministration on Cmax or AUC” value is recorded as “no significant effect; also recorded: No substantial differences”. In addition, the “Intersubject variability, CV for Cmax and AUC” value in series [6] was less than 16%. The figures for the Cmax in [6] (setting [12]) and in [6] (setting [14]) were 263 ng/mL and 278 ng/mL, respectively. Besides, the values for the AUC in [6] (setting [13]) and in series [6] (setting [15]) were 992 ng·h/mL and 886 ng·h/mL, respectively. The AUC(0-t) stood at 969 ng·h/mL in series [6] (setting [13]) and 873 ng·h/mL in series [6] (setting [15]). Besides, the clearance is 85.7 mL/min in [6] (setting [13]) and 95.3 mL/min in series [6] (setting [17]). Further, the half-life was 23.7 h in series [6] (setting [13]) and 22.3 h in [6] (setting [17]). Also, the Tmax in [6] (intravenous, single 5 mg i.v. temsirolimus + ketoconazole 400 mg oral, mean (CV), read-out: Tmax) came out at 0.5 h; in [6] (setting [16]), 0.5 h; in series [6] (setting [18]), 0.5 h. Also, the Vd in [6] (intravenous, single 5 mg i.v. temsirolimus + ketoconazole 400 mg oral, mean (CV), read-out: Vss) turned out to be 92 L; in [6] (intravenous, single 5 mg i.v. temsirolimus + ketoconazole 400 mg oral, mean (CV), read-out: Vz), 174 L; in series [6] (iv, 5 mg, single 5 mg i.v. temsirolimus alone, mean (CV), read-out: Vss) it was 87 L; in [6] (iv, 5 mg, single 5 mg i.v. temsirolimus alone, mean (CV), read-out: Vz) it was 182 L. The CL in [6] (setting [19]) is 5.1 (13.8%) l h^−1; in [6] (setting [20]), 5.7 (11.0%) l h^−1. For the same compound, the values for the Vss in series [6] (setting [19]) and in series [6] (setting [20]) were 91.5 (17.5%) l and 86.8 (14.6%) l, respectively. In addition, in series [6] (setting [22]), the “Least squares geometric mean ratio for AUC” value was 110%. In addition, the “Least squares geometric mean ratio for AUCT” value in [6] (setting [22]) was determined as 109%. Further, the “Least squares geometric mean ratio for Cmax” value in series [6] (setting [22]) was found to be 94%. In series [6] (with ketoconazole vs temsirolimus alone), the “90% CIs for the least squares geometric mean ratios of Cmax, AUCT, and AUC” value is listed as 80–125%. In addition, the “Reduction in Cmax with concomitant enzyme-inducing anticonvulsant agents” value in series [7] is 36%.
